According to ChEMBL document CHEMBL1157545, “Synthesis and cancer cell cytotoxicity of substituted xanthenes” (Bioorg Med Chem, 2010):
The source made the active and inactive calls. No cut-off for these calls is given here.

Tests used:
MCF7 = assay: Cytotoxicity against human MCF7 cells after 48 hrs; type: functional, cell-based; settings: MCF7, 48 h
DU-145 = assay: Cytotoxicity against human DU145 cells after 48 hrs; type: functional, cell-based; settings: DU-145, 48 h
HeLa = assay: Cytotoxicity against human HeLa cells after 48 hrs; type: functional, cell-based
[1] = molecular target: DNA topoisomerase 2-alpha (Homo sapiens) (UniProt P11388); assay: Inhibition of human DNA topoisomerase 2 at 250 uM by DNA relaxation assay
Sequence of DNA topoisomerase 2-alpha (Homo sapiens) (P11388 whole entry): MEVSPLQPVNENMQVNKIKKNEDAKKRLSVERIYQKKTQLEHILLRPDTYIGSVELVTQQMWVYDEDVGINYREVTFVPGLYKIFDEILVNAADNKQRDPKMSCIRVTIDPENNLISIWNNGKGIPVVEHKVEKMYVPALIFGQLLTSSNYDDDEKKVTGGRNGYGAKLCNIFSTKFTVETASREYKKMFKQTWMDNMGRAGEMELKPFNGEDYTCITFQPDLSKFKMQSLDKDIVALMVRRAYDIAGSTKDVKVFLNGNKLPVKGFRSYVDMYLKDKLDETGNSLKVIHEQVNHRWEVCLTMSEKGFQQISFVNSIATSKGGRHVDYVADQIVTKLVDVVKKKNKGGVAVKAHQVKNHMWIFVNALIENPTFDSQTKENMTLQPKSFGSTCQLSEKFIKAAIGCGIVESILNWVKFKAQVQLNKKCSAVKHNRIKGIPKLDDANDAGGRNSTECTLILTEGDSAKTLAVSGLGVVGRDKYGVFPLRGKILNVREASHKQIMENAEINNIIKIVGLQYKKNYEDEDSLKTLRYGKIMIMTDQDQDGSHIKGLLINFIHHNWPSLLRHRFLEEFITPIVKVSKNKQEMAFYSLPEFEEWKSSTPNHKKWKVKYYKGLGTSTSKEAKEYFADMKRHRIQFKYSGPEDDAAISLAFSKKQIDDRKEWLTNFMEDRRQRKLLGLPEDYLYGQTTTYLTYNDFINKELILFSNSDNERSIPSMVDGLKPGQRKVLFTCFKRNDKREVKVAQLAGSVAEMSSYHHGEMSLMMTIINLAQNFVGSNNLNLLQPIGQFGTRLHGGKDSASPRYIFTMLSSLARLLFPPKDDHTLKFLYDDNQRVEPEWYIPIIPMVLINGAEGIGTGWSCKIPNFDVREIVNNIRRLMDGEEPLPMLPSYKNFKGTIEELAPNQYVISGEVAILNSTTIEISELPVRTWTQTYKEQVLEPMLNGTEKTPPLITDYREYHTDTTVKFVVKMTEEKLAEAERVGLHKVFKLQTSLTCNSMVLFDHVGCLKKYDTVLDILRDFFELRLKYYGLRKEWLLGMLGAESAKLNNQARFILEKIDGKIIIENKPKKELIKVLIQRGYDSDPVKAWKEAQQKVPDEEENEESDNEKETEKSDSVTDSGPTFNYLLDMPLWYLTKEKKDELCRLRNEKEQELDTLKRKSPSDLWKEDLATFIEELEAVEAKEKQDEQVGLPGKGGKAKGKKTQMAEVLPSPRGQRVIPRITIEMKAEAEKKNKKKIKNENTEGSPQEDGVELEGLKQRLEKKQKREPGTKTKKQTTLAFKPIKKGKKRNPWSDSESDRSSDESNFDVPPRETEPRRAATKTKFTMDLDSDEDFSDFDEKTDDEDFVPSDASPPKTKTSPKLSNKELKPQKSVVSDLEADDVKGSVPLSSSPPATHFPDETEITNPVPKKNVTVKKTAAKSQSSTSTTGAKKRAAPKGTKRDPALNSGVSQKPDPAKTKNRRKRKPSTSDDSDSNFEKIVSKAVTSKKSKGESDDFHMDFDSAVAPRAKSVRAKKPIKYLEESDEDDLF

Nucleic Acid [2] = assay: Binding affinity to DNA assessed as DNA intercalation at 50 uM; type: nucleic-acid assay
Nucleic Acid [3] = assay: Binding affinity to DNA assessed as DNA intercalation at 250 uM; type: nucleic-acid assay
[4] = molecular target: DNA topoisomerase 2-alpha (Homo sapiens) (UniProt P11388); assay: Inhibition of human DNA topoisomerase 2 at 50 uM by DNA relaxation assay

Row | inhibition [1] | Activity (Nucleic Acid [2]) | Activity (Nucleic Acid [3]) | inhibition [4] | Compound | IC50 (MCF7) [µM] | IC50 (DU-145) [µM] | IC50 (HeLa) [µM]
1 | inactive | inactive | inactive | inactive | CN(C)C(=O)c1ccc2c(c1)Oc1ccccc1C2(O)c1ccccc1 (configuration not stated) | 62 | 59 | 67
2 | – | inactive | inactive | – | CN1CCN(C(=O)c2ccc3c(c2)Oc2ccc(Cl)cc2C3(C)O)CC1 (configuration not stated) | 160 | 241 | 264
3 | – | inactive | inactive | – | COc1cccc(C2(O)c3ccccc3Oc3cc(C(=O)N4CCOCC4)ccc32)c1 (configuration not stated) | 151 | 163 | 153
4 | – | inactive | inactive | – | CCC1(O)c2ccc(C(=O)N3CCN(C)CC3)cc2Oc2ccc(Cl)cc21 (configuration not stated) | 180 | 145 | 153
5 | – | inactive | inactive | – | CN1CCN(C(=O)c2ccc3c(c2)Oc2ccc(Cl)cc2C3(O)c2ccccc2)CC1 (configuration not stated) | 95 | 117 | 158
6 | – | inactive | inactive | – | CN1CCN(C(=O)c2ccc3c(c2)Oc2ccccc2C3(C)O)CC1 (configuration not stated) | 115 | 119 | 121
7 | inactive | inactive | inactive | inactive | COc1cccc(C2(O)c3ccccc3Oc3ccccc32)c1 | 82 | 59 | 85
8 | – | inactive | inactive | – | COc1cccc(C2(O)c3ccccc3Oc3cc(C(=O)N4CCN(C)CC4)ccc32)c1 (configuration not stated) | 125 | 139 | 111
9 | inactive | inactive | inactive | inactive | CN1CCN(C(=O)c2ccc3c(c2)Oc2ccc(F)cc2C3(O)c2ccccc2)CC1 (configuration not stated) | 62 | 84 | 109
10 | – | inactive | inactive | – | O=C(c1ccc2c(c1)Oc1ccccc1C2(O)c1ccccc1)N1CCOCC1 (configuration not stated) | 134 | 125 | 120
11 | – | inactive | inactive | – | OC1(c2ccccc2)c2ccccc2Oc2ccccc21 | > 500 | > 500 | > 500
12 | inactive | inactive | inactive | inactive | COc1cccc(C2(O)c3ccccc3Oc3cc(C(=O)N(C)C)ccc32)c1 (configuration not stated) | 50 | 36 | 44
13 | – | inactive | inactive | – | COc1cccc(C2(O)c3ccc(C(=O)N4CCN(C)CC4)cc3Oc3ccc(Cl)cc32)c1 (configuration not stated) | 72 | 92 | 94
14 | – | inactive | inactive | – | C=CC1(O)c2ccccc2Oc2cc(C(=O)N3CCN(C)CC3)ccc21 (configuration not stated) | 74 | 63 | 74
15 | – | inactive | inactive | – | CCC1(O)c2ccc(C(=O)N3CCN(C)CC3)cc2Oc2ccc(F)cc21 (configuration not stated) | 138 | 139 | 127
16 | – | inactive | inactive | – | C=CC1(O)c2ccc(C(=O)N3CCN(C)CC3)cc2Oc2ccc(Cl)cc21 (configuration not stated) | > 500 | 208 | 285
17 | – | inactive | inactive | – | CCC1(O)c2ccccc2Oc2cc(C(=O)N3CCN(C)CC3)ccc21 (configuration not stated) | 218 | 195 | 213
18 | inactive | inactive | inactive | inactive | COc1cccc(C2(O)c3ccc(C(=O)N4CCN(C)CC4)cc3Oc3ccc(F)cc32)c1 (configuration not stated) | 46 | 55 | 85
19 | – | inactive | inactive | – | CN1CCN(C(=O)c2ccc3c(c2)Oc2ccccc2C3(O)c2ccccc2)CC1 (configuration not stated) | 169 | > 300 | 170
20 | inactive | inactive | inactive | inactive | C=CC1(O)c2ccc(C(=O)N3CCN(C)CC3)cc2Oc2ccc(F)cc21 (configuration not stated) | 254 | > 300 | 230
21 | – | inactive | inactive | – | CN1CCN(C(=O)c2ccc3c(c2)Oc2ccc(F)cc2C3(C)O)CC1 (configuration not stated) | 208 | > 300 | > 300

Row | Compound | inhibition [1] | Activity (Nucleic Acid [2]) | Activity (Nucleic Acid [3]) | inhibition [4] | IC50 (MCF7) [µM] | IC50 (DU-145) [µM] | IC50 (HeLa) [µM]
22 | O=c1c2ccccc2oc2ccccc12 [XANTHONE] | – | inactive | inactive | – | > 500 | > 500 | > 500
